Data as given in the NIST ThermoML archive (doi:10.1016/j.jct.2014.04.026).
“And” between values parts separate entries of the source, which are not always exact repeats. Equal entries are not always repeated. Numbers after ± are expanded uncertainties.

Assays:
[1] = Molar enthalpy of transition or fusion; conditions: Crystal; DSC
[2] = for vapor or sublimation pressure: Closed cell (Static) method; for Normal melting temperature: DTA

Cn1cccn1 [1-methyl-1H-pyrazole]
Conditions	Molar enthalpy of transition or fusion [kcal/mol]
[1]	2.72 ± 0.0956

[2], Liquid
Conditions	vapor or sublimation pressure [kPa]
253.9 K	0.0681 ± 0.0014
255.85 K	0.08089 ± 0.0016
257.81 K	0.0948 ± 0.0018
260.03 K	0.1138 ± 0.0021
261.7 K	0.1308 ± 0.002
263.65 K	0.1508 ± 0.0022
265.63 K	0.1755 ± 0.0024
267.62 K	0.2033 ± 0.0026
269.55 K	0.2358 ± 0.0029
271.5 K	0.2714 ± 0.0032
273.47 K	0.3111 ± 0.0035
275.47 K	0.3597 ± 0.0039
277.42 K	0.4115 ± 0.0044
279.4 K	0.4704 ± 0.0049
281.39 K	0.539 ± 0.0055
283.35 K	0.6108 ± 0.0061
285.3 K	0.6958 ± 0.0069
287.32 K	0.7878 ± 0.0077
289.32 K	0.893 ± 0.0086
291.27 K	1.01 ± 0.01
293.27 K	1.147 ± 0.011

Conditions	Normal melting temperature [°C]
[2], Crystal	-43.9 ± 0.4

Cn1cnc2ccccc21 [1-methylbenzimidazole]
Conditions	Molar enthalpy of transition or fusion [kcal/mol]
[1]	3.32 ± 0.0956

[2]
Conditions	vapor or sublimation pressure
301.22 K, Crystal	0.00026 ± 0.00011 kPa
303.14 K, Crystal	0.00033 ± 0.00011 kPa
303.16 K, Liquid	0.00051 ± 0.00011 kPa
305.14 K, Crystal	0.00042 ± 0.00011 kPa
305.18 K, Crystal	0.00041 ± 0.00011 kPa
305.2 K, Liquid	0.00062 ± 0.00011 kPa
307.12 K, Liquid	0.00074 ± 0.00011 kPa
307.14 K, Crystal	0.00051 ± 0.00011 kPa
309.1 K, Liquid	0.00089 ± 0.00011 kPa
309.11 K, Crystal	0.00063 ± 0.00011 kPa
311.07 K, Crystal	0.00078 ± 0.00011 kPa
311.09 K, Liquid	0.00107 ± 0.00012 kPa
313.09 K, Crystal	0.00097 ± 0.00012 kPa
313.12 K, Liquid	0.00128 ± 0.00012 kPa
315.09 K, Liquid	0.00153 ± 0.00012 kPa
315.1 K, Crystal	0.00119 ± 0.00012 kPa
317.04 K, Liquid	0.00182 ± 0.00013 kPa
317.06 K, Crystal	0.00146 ± 0.00012 kPa
319.03 K, Crystal	0.00178 ± 0.00013 kPa
319.07 K, Liquid	0.00217 ± 0.00014 kPa
321.01 K, Liquid	0.00255 ± 0.00015 kPa
321.02 K, Crystal	0.00217 ± 0.00014 kPa
322.97 K, Crystal	0.00264 ± 0.00015 kPa
322.99 K, Liquid	0.00304 ± 0.00016 kPa
325.01 K, Crystal	0.00324 ± 0.00017 kPa
327 K, Crystal	0.00392 ± 0.00019 kPa
328.91 K, Crystal	0.00473 ± 0.00022 kPa
332.95 K, Liquid	0.00656 ± 0.00028 kPa
334.92 K, Liquid	0.00759 ± 0.00032 kPa
336.91 K, Liquid	0.0089 ± 0.00037 kPa
336.92 K, Liquid	0.00896 ± 0.00037 kPa
338.9 K, Liquid	0.01031 ± 0.00042 kPa
340.86 K, Liquid	0.01187 ± 0.00048 kPa
340.87 K, Liquid	0.01203 ± 0.00048 kPa
342.88 K, Liquid	0.01375 ± 0.00053 kPa
344.83 K, Liquid	0.01603 ± 0.00056 kPa and 0.01591 ± 0.00056 kPa
346.81 K, Liquid	0.01835 ± 0.0006 kPa
348.79 K, Liquid	0.02107 ± 0.00064 kPa
350.76 K, Liquid	0.02401 ± 0.00068 kPa
352.73 K, Liquid	0.02767 ± 0.00074 kPa and 0.02759 ± 0.00074 kPa
354.7 K, Liquid	0.03132 ± 0.0008 kPa
356.69 K, Liquid	0.03607 ± 0.00087 kPa
358.67 K, Liquid	0.04098 ± 0.00095 kPa
360.63 K, Liquid	0.04632 ± 0.001 kPa
362.6 K, Liquid	0.05225 ± 0.0011 kPa
364.59 K, Liquid	0.05898 ± 0.0012 kPa
366.55 K, Liquid	0.06653 ± 0.0013 kPa
368.53 K, Liquid	0.07509 ± 0.0015 kPa
370.5 K, Liquid	0.08443 ± 0.0016 kPa
372.49 K, Liquid	0.09469 ± 0.0018 kPa

Conditions	Normal melting temperature [°C]
[2], Crystal	56.1 ± 0.4

Cn1ccc2ccccc21 [1-methylindole]
Conditions	Molar enthalpy of transition or fusion [kcal/mol]
[1]	2.61 ± 0.0956

[2]
Conditions	vapor or sublimation pressure [kPa]
267.62 K, Crystal	0.00033 ± 0.0001
268.58 K, Liquid	0.00043 ± 0.0001
268.6 K, Crystal	0.00037 ± 0.0001
269.57 K, Crystal	0.00042 ± 0.0001
270.55 K, Crystal	0.00048 ± 0.0001
270.56 K, Liquid	0.00054 ± 0.0001
271.57 K, Crystal	0.00054 ± 0.0001
272.5 K, Liquid	0.00066 ± 0.0001
272.52 K, Crystal	0.0006 ± 0.0001
273.51 K, Crystal	0.00068 ± 0.0001
274.48 K, Liquid	0.00081 ± 0.0001
274.5 K, Crystal	0.00077 ± 0.0001
275.47 K, Crystal	0.00086 ± 0.0001
276.45 K, Liquid	0.00097 ± 0.0001
278.42 K, Liquid	0.0012 ± 0.00011
280.39 K, Liquid	0.00145 ± 0.00011
282.35 K, Liquid	0.00176 ± 0.00012
284.36 K, Liquid	0.00211 ± 0.00013
286.31 K, Liquid	0.00252 ± 0.00014
288.32 K, Liquid	0.00302 ± 0.00015
290.27 K, Liquid	0.00358 ± 0.00017
290.29 K, Liquid	0.00359 ± 0.00017
292.29 K, Liquid	0.00431 ± 0.0002
294.24 K, Liquid	0.00507 ± 0.00022
296.28 K, Liquid	0.00607 ± 0.00026
298.2 K, Liquid	0.0071 ± 0.0003
300.25 K, Liquid	0.00844 ± 0.00035
302.2 K, Liquid	0.00987 ± 0.0004
304.21 K, Liquid	0.01167 ± 0.00047
306.16 K, Liquid	0.01359 ± 0.00052
308.14 K, Liquid	0.0158 ± 0.00056
310.17 K, Liquid	0.01854 ± 0.0006
312.14 K, Liquid	0.02149 ± 0.00064
314.11 K, Liquid	0.02521 ± 0.0007
316.14 K, Liquid	0.029 ± 0.00076
318.06 K, Liquid	0.03354 ± 0.00083
320.05 K, Liquid	0.03839 ± 0.00091
322.02 K, Liquid	0.0445 ± 0.001
324.04 K, Liquid	0.05044 ± 0.0011
326.02 K, Liquid	0.05848 ± 0.0012
327.98 K, Liquid	0.06647 ± 0.0013
329.95 K, Liquid	0.07637 ± 0.0015
331.91 K, Liquid	0.08658 ± 0.0016
333.89 K, Liquid	0.09881 ± 0.0018
335.91 K, Liquid	0.1114 ± 0.002
337.89 K, Liquid	0.1263 ± 0.0023
339.81 K, Liquid	0.1424 ± 0.0021
341.9 K, Liquid	0.1624 ± 0.0023

Conditions	Normal melting temperature [°C]
[2], Crystal	3.4 ± 0.4
